Results published in patent US20240317748A1, “CARBONYL SUBSTITUTED DIAZASPIRO COMPOUNDS AND ITS USE” (BIONOVA PHARMACEUTICALS (SHANGHAI) LIMITED, priority 2021, published 2024).

Key:
Menin-MLL1 = biological target: T1, Menin-MLL1 (Homo sapiens, UniProt O00255); test: Menin-MLL1 inhibition assay (fluorescence polarization, Menin protein + FAM-MLL peptide); assay type: binding; conditions: Menin (2-610) isoform 2, FAM-labelled MLL peptide, mP readout; read-out: Biochemical assay Menin-MLL1 IC50
T1 construct: Menin (2-610) isform2; purchased ChemPartner 2020111101
T1 sequence (O00255 2-610): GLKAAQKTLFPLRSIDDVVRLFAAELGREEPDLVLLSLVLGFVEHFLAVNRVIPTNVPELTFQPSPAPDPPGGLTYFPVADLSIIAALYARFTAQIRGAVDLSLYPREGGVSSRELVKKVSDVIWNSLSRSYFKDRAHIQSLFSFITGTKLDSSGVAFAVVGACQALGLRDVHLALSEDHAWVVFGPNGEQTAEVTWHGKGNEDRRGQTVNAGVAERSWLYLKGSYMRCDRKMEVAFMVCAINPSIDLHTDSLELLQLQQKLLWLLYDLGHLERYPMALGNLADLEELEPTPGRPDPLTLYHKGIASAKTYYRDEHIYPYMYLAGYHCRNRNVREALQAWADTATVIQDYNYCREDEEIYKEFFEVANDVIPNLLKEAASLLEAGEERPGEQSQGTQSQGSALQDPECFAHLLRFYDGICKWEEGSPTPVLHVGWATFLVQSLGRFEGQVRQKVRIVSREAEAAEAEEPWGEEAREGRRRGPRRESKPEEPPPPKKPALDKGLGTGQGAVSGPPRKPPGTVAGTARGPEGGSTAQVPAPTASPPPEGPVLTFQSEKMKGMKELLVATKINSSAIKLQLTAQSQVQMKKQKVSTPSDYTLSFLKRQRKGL
Description: 1× assay bu9ffer (Tris 7.5 50 mM, NaCl 50 mM, DTT 1 mM, Tween-20 0.01%) was prepared and test compounds solution (10 mM in DMSO, Sigma, Cat. No. 34869) were transferred to assay plate (384-well plate, Perkin Elmer, Cat. No. 6007279) by Echo. The final fraction of DMSO is 1%. 20 nM of Menin protein (Menin (2-610) isform2, ChemPartner, Cat. No. 2020111101) in 1× assay buffer was added to prepare 2× enzyme solution. Then 10 nM of MLL-peptide (Ac-SRWRFPARPGTGRR-Ahx-Ahx-K(FAM)-NH2, GL Biochem (Shanghai)), Cat. No. 833831/202009220104) in 1× assay buffer was added to prepare 2× substrate solution. 10 μL of 2× enzyme solution was transferred to assay plate or 10 μL of 1× assay buffer for low control group. 10 μL of 2× substrate solution was added to each well to start reaction. mP data on Envision (Ex480/Em535(s), Em535(p)) was collected.
Compound potencies were determined by first calculating % inhibition at each compound concentration according to equation 1:
Inhibition %=(Max−Signal)/(Max−Min)*100 (Equation 1)
Y=Bottom+(Top-Bottom)/(1+(IC50/X)[…]), where Y is % inhibition and X is compound concentration (Equation 2)

MV-4-11 cells = test: Cell proliferation assay (CellTiter-Glo), MV-4-11; assay type: cell-based, human; conditions: Homo sapiens, MV4-11, 96 h; MV-4-11 (MLL-AF4), 4 days incubation; read-out: Cell antiproliferation assay MV-4-11 IC50
Description: The antiproliferative activity of test compounds was assessed in human leukemia cell lines. The cell line MV4-11, MOLM13 and OCI-AML3, which expresses the MLL fusion protein MLL-AF4, MLL-AF9 and carry the NPM1c gene mutation, respectively, were tested. HL-60 was used as a control cell line containing two MLL wildtype alleles in order to exclude compounds that display general cytotoxic effect. MV4-11 cells were cultured in IMDM supplemented with 10% FBS, MOLM13 and OCI-AML3 cells were cultured in RPMI1640 supplemented with 20% FBS, and HL-60 cells were cultured in IMDM supplemented with 20% FBS. Corresponding cells (MV4-11, MOLM13, OCI-AML3 or HL-60 cell line) were seeded in 100 uL medium per well in 96-well plate (white wall with clear bottom, tissue culture treated, Corning, Cat. No. CLS3903; Lot.No. 30419025). Plates were placed in the CO2 incubator overnight. Compounds solution (2 mM starting, 4-fold serial dilution) were prepared and added to the wells containing 100 μL of the culture medium with HPD300 according to the plate map and centrifuge at 1000 rpm for 1 minutes (200-fold dilution totally). MV4-11, MOLM13, OCI-AML3 and HL-60 cells were incubated with the compounds for 4, 12, 5 and 4 days, respectively, under 5% CO2 at 37° C., respectively. 100 μL of CellTiter-Glo reagent (Promega, Cat. No. G7573, Lot. No. 0000416710) was added to the assay plate by Multidrop Combi instrument, contents were mixed for 10 minutes on an orbital shaker to induce cell lysis. After incubation at room temperature for 10 mins, clear bottom with white back seal was pasted and luminescence with Envision was read.

Structure (SMILES)	IC50 (Menin-MLL1)	IC50 (MV-4-11 cells)
CCN(C(=O)c1cc(F)ccc1Oc1nncnc1N1CC2(CCN(C(=O)[C@H]3NC[C@H]4CC(F)(F)C[C@H]43)CC2)C1)C(C)C (single isomer, unassigned) [Example 98a]	5.4 nM	333 nM
CCN(C(=O)c1cc(F)ccc1Oc1nncnc1N1CC2(CCN(C(=O)[C@@H]3NC[C@@H]4CC(F)(F)C[C@@H]43)CC2)C1)C(C)C (single isomer, unassigned) [Example 98b]	22 nM	2640 nM
CCN(C(=O)c1cc(F)ccc1Oc1nncnc1N1CC2(CCN(C(=O)C3NC[C@H]4CC(F)(F)C[C@@H]34)CC2)C1)C(C)C (single isomer, unassigned) [Example 98c]	44.5 nM	–
CCN(C(=O)c1cc(F)ccc1Oc1nncnc1N1CC2(CCN(C(=O)[C@H]3NC[C@@H]4CC(F)(F)C[C@@H]43)CC2)C1)C(C)C (single isomer, unassigned) [Example 98d]	2.3 nM	29.5 nM
CCN(C(=O)c1cc(F)ccc1Oc1cncnc1N1CC2(CCN(C(=O)[C@@H]3C[C@H](F)CN3)CC2)C1)C(C)C [Example 3]	20.9 nM	329 nM
CCN(C(=O)c1cc(F)ccc1Oc1cncnc1N1CC2(CCN(C(=O)[C@@H]3CCCCN3)CC2)C1)C(C)C [Example 4]	5 nM	33.1 nM
CCN(C(=O)c1cc(F)ccc1Oc1cncnc1N1CC2(CCN(C(=O)[C@@H]3C[C@@H](O)CN3)CC2)C1)C(C)C [Example 5]	7 nM	440 nM
CCN(C(=O)c1cc(F)ccc1Oc1cncnc1N1CC2(CCN(C(=O)[C@@H]3C[C@]4(C)C[C@@H]4N3)CC2)C1)C(C)C [Example 6]	6 nM	33.8 nM
CCN(C(=O)c1cc(F)ccc1Oc1cncnc1N1CC2(CCN(C(=O)[C@H]3NCC[C@H]3O)CC2)C1)C(C)C [Example 7]	7.5 nM	220 nM
CCN(C(=O)c1cc(F)ccc1Oc1cncnc1N1CC2(CCN(C(=O)[C@H]3NCC[C@@H]3O)CC2)C1)C(C)C [Example 8]	5.5 nM	332 nM
CCN(C(=O)c1cc(F)ccc1Oc1cncnc1N1CC2(CCN(C(=O)[C@@H]3C[C@@]4(C)C[C@H]4N3)CC2)C1)C(C)C [Example 9]	12.9 nM	40.7 nM
CCN(C(=O)c1cc(F)ccc1Oc1cncnc1N1CC2(CCN(C(=O)[C@@H]3C[C@@H](OC(F)F)CN3)CC2)C1)C(C)C [Example 10]	8.3 nM	238 nM
CCN(C(=O)c1cc(F)ccc1Oc1cncnc1N1CC2(CCN(C(=O)[C@@H]3C[C@]4(CO)CC4N3)CC2)C1)C(C)C (stereo partly shown) [Example 11]	6.3 nM	128 nM
CCN(C(=O)c1cc(F)ccc1Oc1cncnc1N1CC2(CCN(C(=O)[C@@H]3C[C@](F)(CF)CN3)CC2)C1)C(C)C [Example 12]	4.7 nM	68.2 nM
CCN(C(=O)c1cc(F)ccc1Oc1cncnc1N1CC2(CCN(C(=O)[C@@H]3C[C@]4(COC)CC4N3)CC2)C1)C(C)C (stereo partly shown) [Example 13]	16.7 nM	–
CCN(C(=O)c1cc(F)ccc1Oc1cncnc1N1CC2(CCN(C(=O)[C@@H]3CC(C)(O)CN3)CC2)C1)C(C)C (stereo partly shown) [Example 14]	9.2 nM	–
CCN(C(=O)c1cc(F)ccc1Oc1cncnc1N1CC2(CCN(C(=O)[C@@H]3C[C@@H](S(C)(=O)=O)CN3)CC2)C1)C(C)C [Example 15]	55.2 nM	–
CCN(C(=O)c1cc(F)ccc1Oc1cncnc1N1CC2(CCN(C(=O)[C@@H]3C[C@H](NS(C)(=O)=O)CN3)CC2)C1)C(C)C [Example 16]	22.3 nM	–

Structure (SMILES)	IC50 (Menin-MLL1)	IC50 (MV-4-11 cells)
CCN(C(=O)c1cc(C#N)ccc1Oc1cncnc1N1CC2(CCN(C(=O)[C@@H]3C[C@@H](F)CN3)CC2)C1)C(C)C [Example 17]	25.3 nM	317 nM
CCN(C(=O)c1cc(F)ccc1Oc1cncnc1N1CC2(CCN(C(=O)[C@@H]3C[C@@H](NS(C)(=O)=O)CN3)CC2)C1)C(C)C [Example 18]	13.5 nM	–
CCN(C(=O)c1cc(Cl)ccc1Oc1cncnc1N1CC2(CCN(C(=O)[C@@H]3C[C@@H](F)CN3)CC2)C1)C(C)C [Example 19]	5 nM	40.2 nM
CCN(C(=O)c1cc(F)ccc1Oc1cncnc1N1CC2(CCN(C(=O)[C@@H]3C[C@@H](F)CN3)CC2)C1)C1CC1 [Example 20]	10.1 nM	267 nM
CCN(C(=O)c1cc(F)ccc1Oc1cncnc1N1CC2(CCN(C(=O)[C@@H]3CCCN3)CC2)C1)C(C)C [Example 21]	5.8 nM	42.2 nM
CCN(C(=O)c1cc(F)ccc1Oc1cncnc1N1CC2(CCN(C(=O)[C@@H]3C[C@]4(CN3)CC4(F)F)CC2)C1)C(C)C [Example 23]	8.7 nM	127 nM
CCN(C(=O)c1cc(F)ccc1Oc1cncnc1N1CC2(CCN(C(=O)[C@@H]3C[C@@]4(CN3)CC4(F)F)CC2)C1)C(C)C [Example 24]	8 nM	102 nM
CCN(C(=O)c1cc(F)ccc1Oc1cncnc1N1CC2(CCN(C(=O)[C@@H]3CC[C@@H](F)CN3)CC2)C1)C(C)C [Example 25]	8.4 nM	232 nM
CCN(C(=O)c1cc(F)ccc1Oc1cncnc1N1CC2(CCN(C(=O)[C@@H]3COCCN3)CC2)C1)C(C)C [Example 26]	10.2 nM	647 nM
CCN(C(=O)c1cc(F)ccc1Oc1cncnc1N1CC2(CCN(C(=O)[C@@H]3C[C@@H](C#N)CN3)CC2)C1)C(C)C [Example 27, 2-((4-(7-((2S,4R)-4-cyanopyrrolidine-2-carbonyl)-2,7-diazaspiro[3.5]nonan-2-yl)pyrimidin-5-yl)oxy)-N-ethyl-5-fluoro-N-isopropylbenzamide]	18.4 nM	420 nM
CCN(C(=O)c1cc(F)ccc1Oc1cncnc1N1CC2(CCN(C(=O)[C@@]3(C)CCCN3)CC2)C1)C(C)C [Example 29]	7 nM	271 nM
CCN(C(=O)c1cc(F)ccc1Oc1cncnc1N1CC2(CCN(C(=O)[C@@H]3C[C@@H]4C[C@@H]4N3)CC2)C1)C(C)C [Example 30]	4.7 nM	33.8 nM
[2H]c1c(F)cc(C(=O)N(CC)C(C)C)c(Oc2cncnc2N2CC3(CCN(C(=O)[C@@H]4C[C@@H](F)CN4)CC3)C2)c1[2H] [Example 31]	6.7 nM	41 nM
CCN(C(=O)c1cc(F)ccc1Oc1cncnc1N1CC2(CCN(C(=O)[C@@H]3C[C@H]4C[C@H]4N3)CC2)C1)C(C)C [Example 32]	6.5 nM	75.4 nM
CCN(C(=O)c1cc(F)ccc1Oc1cncnc1N1CC2(CCN(C(=O)[C@H]3NCc4ccccc43)CC2)C1)C(C)C [Example 33]	4.5 nM	19.3 nM
CCN(C(=O)c1ccccc1Oc1cncnc1N1CC2(CCN(C(=O)[C@@H]3C[C@@H](F)CN3)CC2)C1)C(C)C [Example 36]	4 nM	66 nM
CCN(C(=O)c1cc(F)ccc1Oc1cncnc1N1CC2(CCN(C(=O)[C@@H]3C[C@@H](F)CN3)C2)C1)C(C)C [Example 37]	15.4 nM	–
CCN(C(=O)c1cc(F)ccc1Oc1cncnc1N1CC2(CCN(C(=O)[C@@H]3CSCN3)CC2)C1)C(C)C [Example 52]	21 nM	–
